{"source": "paper PMC4955146", "about": "“Virtual screening and experimental validation of novel histone deacetylase inhibitors” (BMC Pharmacology & Toxicology, 2016)", "test_system": "HDACs in HeLa nuclear extracts", "assay": "HDAC inhibitory activity assay (fluorometric HDAC inhibitor drug screening kit)", "assay_type": "biochemical", "details": "percentage of the positive control, inhibitor control at 20 μM", "experimental": "The HDAC inhibitor drug screening kit (k340-100, BioVision, CA, USA) was used to measure HDAC inhibitory activities of the candidate compounds according to the manufacturer’s instructions. The candidate compounds, assay buffer, and HDAC fluorometric substrate, which comprises an acetylated lysine side chain, were added to HeLa nuclear extracts in a 96-well plate and incubated at 37 °C for 30 min. The reaction was stopped by adding lysine developer, and the mixture was incubated for another 30 min at 37 °C. An additional positive control included incubation with double-distilled water, and the inhibitor control consisted of incubation with Trichostatin A (TSA) at 20 μM. HDAC activities were quantified by a fluorescence plate reader (POLARstar OPTIMA, BMG, BRD) with excitation at 370 nm and emission at 450 nm."}
{"substance": "Trichostatin A [TSA]", "values": [{"measurement": "relative enzymatic activity", "value": 12, "unit": "%"}]}
